US11457629B2, “Heteroarylphenylaminoquinolines and analogues” (Bayer Aktiengesellschaft, priority 2017, dated 2022)
Like-named read-outs stand apart in the source and are kept apart here.

Tests used:
Leptnosphaeria nodorum [1] = test: Example D: Leptnosphaeria nodorum in vitro cell test; assay type: cell-based; settings: 144 h, read-out: efficacy (inhibition of fungal growth)
Pyricularia oryzae = test: microbe, parasite or virus in culture; assay type: cell-based; settings: 120 h, read-out: efficacy (inhibition of fungal growth)
[2] = Log P by HPLC on reversed phase columns, method [a] (acidic range, 0.1% formic acid)
Method: In the following, measurement of Log P values was performed according to EEC directive 79/831 Annex V.A8 by HPLC (High Performance Liquid Chromatography) on reversed phase columns with the following methods: • ^[a]
If more than one Log P value is available within the same method, all the values are given and separated by “+”.
Calibration was done with straight-chain alkan2-ones (with 3 to 16 carbon atoms) with known Log P values (measurement of Log P values using retention times with linear interpolation between successive alkanones).

[3] = tested on: Colletotrichum lindemuthianum; test: Example K: comparative data, in vivo preventive test on Colletotrichum lindemuthianum (antrachnose on bean); settings: rate of application 500 ppm, evaluated 6 days after inoculation
Septoria tritici = test: Example L: comparative data, Septoria tritici in vitro cell test; assay type: cell-based; settings: rate of application 4 ppm; 7 days incubation
Method: Comparative Data—Septoria tritici In Vitro Cell Test Solvent: DMSOCulture medium: 14.6 g anhydrous D-glucose (VWR), 7.1 g Bacteriological Peptone (Oxoid), 1.4 g granulated Yeast Extract (Merck), QSP 1 literInoculum: spore suspension The compounds to be tested were solubilized in DMSO and the solution used to prepare the required range of concentrations. […] A spore suspension of S. tritici was prepared and diluted to the desired spore density. The tested compounds were evaluated for their ability to inhibit spore germination and mycelium growth in liquid culture assay. The compounds were added in the desired concentration to the culture medium to with spores. […] Inhibition of fungal growth was determined by comparing the absorbance values in wells containing the tested compound with the absorbance in control wells without tested compound.

Botrytis cinerea = test: Example H: comparative data, in vivo preventive test on Botrytis cinerea (grey mould), gherkin; settings: rate of application 500 ppm, evaluated 4 to 5 days after inoculation
Leptnosphaeria nodorum [4] = test: Example I: comparative data, Leptnosphaeria nodorum in vitro cell test; assay type: cell-based; settings: rate of application 4 ppm; 6 days incubation
Ustilago avenae = test: Example J: comparative data, Ustilago avenae in vitro cell test; assay type: cell-based; settings: rate of application 20 ppm; 4 days incubation
[5] = tested on: Colletotrichum lindemuthianum; test: Example F: Colletotrichum lindemuthianum in vitro cell test; assay type: cell-based; settings: 144 h, read-out: efficacy (inhibition of fungal growth)
[6] = HPLC on reversed phase columns, method [a]: acidic range
[7] = logP, HPLC on reversed phase columns, method [a]: acidic range
[8] = 20 ppm of active ingredient, 6 days incubation
[9] = LogP, method [a] / Method A: LC-UV, acidic range

## CC(C)n1ccc(-c2c(F)cccc2Nc2cnc3ccccc3c2)n1 [Example I-027]
Leptnosphaeria nodorum [1]
  inhibition at 20 ppm: 80 to 89%
Pyricularia oryzae
  inhibition at 20 ppm: 90 to 100%
[2]; [6]
  logP: 4.05 ^[a]
[3]
  Efficacy in %: 65%

## CC(C)(O)c1ccnn1-c1ccccc1Nc1cnc2ccccc2c1 [Example I-063]
Septoria tritici
  Efficacy in %: 96%
[2]; [7]
  chromatographic logP: 1.79

## C=C(C)c1ccnn1-c1ccccc1Nc1cnc2ccccc2c1 [Example I-066]
Leptnosphaeria nodorum [1]
  inhibition at 20 ppm: 90 to 100%
Botrytis cinerea
  Efficacy in %: 98%
Leptnosphaeria nodorum [4]
  Efficacy in %: 94%
Pyricularia oryzae
  inhibition at 20 ppm: 90 to 100%
Ustilago avenae
  Efficacy in %: 63%
[2]; [7]
  chromatographic logP: 2.73
[5]
  inhibition at 20 ppm: 80 to 89%

## CC(C)n1ccc(-c2c(F)cccc2Nc2cnc3ccccc3c2)n1 [Example I-067]
Botrytis cinerea
  Efficacy in %: 95%
[2]; [6]
  logP: 1.94 ^[a]

## CCn1nccc1-c1ccccc1Nc1cnc2c(F)cccc2c1 [Example I-080, N-[2-(1-ethyl-1H-pyrazol-5-yl)phenyl]-8-fluoroquinolin-3-amine]
Leptnosphaeria nodorum [1]; [8]
  inhibition at 20 ppm: 90 to 100%
Pyricularia oryzae
  inhibition at 20 ppm: 80 to 89%
[2]; [9]
  chromatographic logP: 2.82
[2]; [7]
  chromatographic logP: 2.84
[5]; [8]
  inhibition at 20 ppm: 90 to 100%

## Cc1nc2ccccc2nc1Nc1cccc(F)c1-c1ccnn1C [Example I-083, N-[3-fluoro-2-(1-methyl-1H-pyrazol-5-yl)phenyl]-3-methylquinoxalin-2-amine]
Leptnosphaeria nodorum [1]; [8]
  inhibition at 20 ppm: 90 to 100%
Pyricularia oryzae
  inhibition at 20 ppm: 90 to 100%
[2]; [9]
  chromatographic logP: 2.82
[2]; [7]
  chromatographic logP: 2.82
[5]; [8]
  inhibition at 20 ppm: 90 to 100%

## Fc1cccc2cc(Nc3ccccc3-c3ccnn3Cc3ccccc3)cnc12 [Example I-096, N-[2-(1-benzyl-1H-pyrazol-5-yl)phenyl]-8-fluoroquinolin-3-amine]
Leptnosphaeria nodorum [1]; [8]
  inhibition at 20 ppm: 90 to 100%
Pyricularia oryzae
  inhibition at 20 ppm: 90 to 100%
[2]; [9]
  chromatographic logP: 3.49
[2]; [7]
  chromatographic logP: 3.49
[5]; [8]
  inhibition at 20 ppm: 90 to 100%

## C=C(C)c1ccnn1-c1ccccc1Oc1cnc2ccccc2c1 [drawing 46, reference compound]
Botrytis cinerea
  Efficacy in %: 20%

## CC(C)n1ccc(-c2c(F)cccc2Oc2cnc3ccccc3c2)n1 [drawing 47, reference compound]
Botrytis cinerea
  Efficacy in %: 68%

## C=C(C)c1ccnn1-c1ccccc1Oc1cnc2ccccc2c1 [drawing 50, reference compound]
Leptnosphaeria nodorum [4]
  Efficacy in %: 64%

## C=C(C)c1ccnn1-c1ccccc1Oc1cnc2ccccc2c1 [drawing 52, reference compound]
Ustilago avenae
  Efficacy in %: 1%

## CC(C)n1ccc(-c2c(F)cccc2Oc2cnc3ccccc3c2)n1 [drawing 54, reference compound]
[3]
  Efficacy in %: 0%

## CC(C)(O)c1ccnn1-c1ccccc1Oc1cnc2ccccc2c1 [reference compound]
Septoria tritici
  Efficacy in %: 0%
